Measurements: the supplement of paper PMC10307832

Assays:
Test in all cases: relative viability (nuclei count vs DMSO), 5 days (fraction); higher = more cells survive
[1] = compound: C1=CC=C2C(=C1)C=CC(=C2SSC3=C(C=CC4=CC=CC=C43)O)O [IPA-3] + CC1(C)CCC(c2ccc(Cl)cc2)=C(CN2CCN(c3ccc(C(=O)NS(=O)(=O)c4ccc(N[C@H](CCN5CCOCC5)CSc5ccccc5)c(S(=O)(=O)C(F)(F)F)c4)cc3)CC2)C1 [Navitoclax] (partner 0.5 µM)
Summary of the method: (§1)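 Five library-drug doses in √10 steps were combined with a fixed anchor-drug dose, or a single drug was given alone, by pin tool to lung cancer cell lines in 1536-well plates the day after seeding. Nuclei were stained and counted after 5 days. Relative viability is the nuclei count in treated wells over that in vehicle wells, taken as the median of duplicate plates.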

[2] = compound: C1=CC=C2C(=C1)C=CC(=C2SSC3=C(C=CC4=CC=CC=C43)O)O [IPA-3] + N=C(N)NC(=N)NCCc1ccccc1 [Phenformin] (partner 250 µM)
Summary of the method: as §1

[3] = compound: Cc1ccc(-n2nc(C(C)(C)C)cc2NC(=O)Nc2ccc(OCCN3CCOCC3)c3ccccc23)cc1 [Doramapimod] + CC(=O)Nc1cccc(-n2c(=O)n(C3CC3)c(=O)c3c(Nc4ccc(I)cc4F)n(C)c(=O)c(C)c32)c1 [Trametinib] (partner 0.02 µM)
Summary of the method: as §1

[4] = compound: Cc1ccc(-n2nc(C(C)(C)C)cc2NC(=O)Nc2ccc(OCCN3CCOCC3)c3ccccc23)cc1 [Doramapimod] + CCNC(=O)c1noc(-c2cc(C(C)C)c(O)cc2O)c1-c1ccc(CN2CCOCC2)cc1 [Luminespib] (partner 0.01 µM)
Summary of the method: as §1

Cell Line	relative viability ([1]; first compound 0.2 µM)	relative viability ([1]; first compound 0.6325 µM)	relative viability ([1]; first compound 2 µM)	relative viability ([1]; first compound 6.325 µM)	relative viability ([1]; first compound 20 µM)	relative viability ([2]; first compound 0.2 µM)	relative viability ([2]; first compound 0.6325 µM)	relative viability ([2]; first compound 2 µM)	relative viability ([2]; first compound 6.325 µM)	relative viability ([2]; first compound 20 µM)	relative viability ([3]; first compound 0.02 µM)	relative viability ([3]; first compound 0.06325 µM)	relative viability ([3]; first compound 0.2 µM)	relative viability ([3]; first compound 0.6325 µM)	relative viability ([3]; first compound 2 µM)	relative viability ([4]; first compound 0.02 µM)	relative viability ([4]; first compound 0.06325 µM)	relative viability ([4]; first compound 0.2 µM)	relative viability ([4]; first compound 0.6325 µM)	relative viability ([4]; first compound 2 µM)
NCI-H2087	1.15	0.863	0.837	0.859	0.926	0.596	0.412	0.555	0.476	0.466	0.235	0.163	0.198	0.197	0.193	0.174	0.215	0.195	0.158	0.234
LU99A	0.866	0.86	0.819	0.781	0.889	0.883	0.764	0.858	0.933	0.799	0.501	0.511	0.545	0.645	0.477	0.26	0.239	0.239	0.199	0.24
BEN	0.0641	0.0847	0.0621	0.0718	0.0865	0.268	0.291	0.243	0.243	0.388	0.908	0.924	1.11	0.737	0.924	0.537	0.56	0.351	0.13	0.352
SK-LU-1	1.39		0.786	0.878	0.971	0.775	0.54	0.499	0.509	0.588	0.469	0.593	0.588	0.624	0.555	0.208	0.204	0.172	0.218	0.186
NCI-H1975	1.22	0.932	1.06	1.17	1.17	0.43	0.385	0.43	0.429	0.381	0.337	0.307	0.348	0.4	0.331	0.173	0.192	0.207	0.258	0.266
RERF-LC-KJ	1.53	0.879	1.1	0.877	1.06	0.5	0.409	0.509	0.441	0.462	0.969	0.881	0.901	0.984	0.885	1.35	1.16	1.24	1.36	1.2
NCI-H441	0.814		0.405	0.216	0.771	1	0.715	0.838	0.742	0.513	0.511	0.524	0.457	0.568	0.366	0.317	0.243	0.399		0.298
NCI-H1915	0.794	0.817	0.782	0.782	0.738	0.388	0.36	0.371	0.338	0.389	0.303	0.313	0.311	0.311	0.277	0.58	0.821	0.793	0.9	0.712
